Test results as given in patent US5358945A, “Pyrimidine compound and pharmaceutically acceptable salts thereof” (Mitsui Petrochemical Industries, Ltd., priority 1990, dated 1994).

Assays:
mouse = assay: Acute toxicity in mouse (Table 10); format: in vivo
Protocol: The acute toxicity of the compounds of the invention was examined by the following method.
Male ddy-strain 5-week old mice, 4-6 per group, were used as experimental animals. Each of the compounds was dissolved or suspended in saline and administered perorally (p.o.) or intraperitoneally (i.p.), and the toxicity of the compound was assessed 24 hours after the administration.

Mouse neuro 2a cells = assay: Neurite outgrowth of mouse neuroblastoma neuro 2a cells (Table 7); format: cell-based; conditions: mean ± S.D.
Protocol: The biological activities in vitro of the compounds of formula (I) on cells of the nervous system were tested. The cells tested were mouse neuroblastoma cell line neuro-2a (Dainippon Pharmaceutical Co., Ltd.) which have been established as the cells of the nervous system. The above nerve cells were grown in an incubator at 37° C. in the presence of 5% carbon dioxide gas exponentially, and the cultured for a certain period of time together with the compounds of formula (I).
The effects of the compounds of this invention on neuroblastoma cells were examined by the following method.
Mouse neuro 2a cells in the logarithmic growth period in the Dulbecco's modified Eagle's medium [DMEM, containing 100 units/ml of penicillin G sodium and 100 micrograms/ml of streptomycin sulfate] containing 10% of FCS were seeded in a 48-well plate so that the number of cells was 1,000 cells/well, and cultured for one day in 0.25 ml of the culture fluid in each well in an incubator containing 5% of carbon dioxide gas in air at 37° C. The medium was replaced by a medium containing each antibiotics and FCS and the cells were further cultured for 24 hours. Then, a 4% aqueous glutaraldehyde solution in the same amount as a medium (0.25 ml) was added, and the culture was left to stand at room temperature for 2 hours to fix the cells. After washing with water, a 0.05% aqueous solution of methylene blue was added to stain the cells. Under a microscope, the number of cells containing outgrown neurites (cells having at least one neurite with a length of at least two times as large as the long diameter of the cell) was counted visually, and the proportion of these cells in the entire cells was calculated. The well was observed over 5 or more visual fields (at least 2% of the entire surface area of the well) continuous to the left and right from a mark put at the center of the well, and more than 200 cells was counted. One drug compound was used in 6 different concentrations at most, and three runs were conducted for each concentration.

[1] = tested on: Mouse neuroblastoma cells NS-20Y; assay: Neurite appearance in mouse neuroblastoma NS-20Y cells (Table 8); format: cell-based;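 note: cells grown in polyornithine-coated dishes, with timing counted from the start of culture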
[2] = i.p., 24 hours after administration

Compound	Estimated LD50 (mouse; in vivo, ip) [mg/kg]	Ratio of the number of cells having neurites with a length of at least two times as large as the diameter of cells to the total number of cells (Mouse neuro 2a cells; 0.01 mM) [%]	Ratio of the number of cells having neurites with a length of at least two times as large as the diameter of cells to the total number of cells (Mouse neuro 2a cells; 0.03 mM) [%]	Ratio of the number of cells having neurites with a length of at least two times as large as the diameter of cells to the total number of cells (Mouse neuro 2a cells; 0.3 mM) [%]	Ratio of the number of cells having neurites with a length of at least two times as large as the diameter of cells to the total number of cells (Mouse neuro 2a cells; 1 mM) [%]	The number of cells in which neurites appeared/Total number of cells ([1]; 24 hour, 0.2 mM)	The number of cells in which neurites appeared/Total number of cells ([1]; 48 hour, 0.2 mM)	Ratio of the number of cells having neurites with a length of at least two times as large as the diameter of cells to the total number of cells (Mouse neuro 2a cells; 0.1 mM) [%]	The number of cells in which neurites appeared/Total number of cells ([1]; 24 hour, 0.5 mM)	The number of cells in which neurites appeared/Total number of cells ([1]; 48 hour, 0.5 mM)	Estimated LD50 (mouse; [2]) [mg/kg]	The number of cells in which neurites appeared/Total number of cells ([1]; 24 hour, 0.1 mM)	The number of cells in which neurites appeared/Total number of cells ([1]; 48 hour, 0.1 mM)
CC(=O)c1ccc(C(=O)N(C)c2ccnc(N3CCC(c4ccccc4)CC3)n2)cc1 [Compound 176]	> 1000	18.4 ± 2.0	11.5 ± 2.1	13.6 ± 0.9	14.8 ± 2.9	4/50	4/50						
COC(=O)c1ccc(C(=O)N(C)c2ccnc(N3CCCCC3)n2)cc1 [Compound 192]	500 to 1000			13.8 ± 2.8		5/50	7/50	8.0 ± 1.3	5/50	11/50			
CN(C(=O)c1ccc(C=O)cc1)c1ccnc(N2CCCCC2)n1 [Compound 200]				19.7 ± 3.1		8/50	11/50	5.8 ± 1.3	16/50	18/50	> 1000		
CC(=O)c1ccc(C(=O)N(C)c2ccnc(N3CCCCC3)n2)cc1 [Compound 208]	> 1000			7.9 ± 0.6	12.7 ± 3.0	2/50	6/50		3/50	5/50			
CC(=O)N(C)c1ccnc(N2CCSCC2)n1 [Compound 216]	500 to 1000			4.4 ± 1.3	15.8 ± 3.2	3/50			3/50	4/50			
O=C1CCCN1c1ccnc(N2CCCCC2)n1 [Compound 273]		5.3 ± 0.8		24.0 ± 3.2	10.3 ± 4.0	15/50	16/50	7.7 ± 2.0	18/50	22/50	> 500	10/50	8/50
CC1CCN(c2nccc(N3CCCC3=O)n2)CC1 [Compound 304]	250 to 500		3.7 ± 1.2	17.7 ± 2.9	16.3 ± 4.5	12/50	14/50	6.8 ± 1.0	16/50	17/50		8/50	7/50
CCC1CCN(c2nccc(N3CCCC3=O)n2)CC1 [Compound 312]		3.8 ± 0.6	4.1 ± 1.2			13/50	13/50	12.7 ± 2.8	17/50	18/50	> 500	6/50	8/50
O=C1CCCN1c1ccnc(N2CCCC2)n1 [Compound 320]		4.2 ± 1.9		11.0 ± 0.8	10.7 ± 4.7			4.2 ± 0.3	6/50	3/50	> 500	5/50	
CC1CCCCN1c1nccc(N2CCCC2=O)n1 (stereo not shown) [Compound 328]	250 to 500	3.9 ± 0.9		5.6 ± 1.7								3/50	3/50
CC1CCCN(c2nccc(N3CCCC3=O)n2)C1 (stereo not shown) [Compound 336]	250 to 500		4.0 ± 1.0	21.3 ± 3.0	21.2 ± 1.6			5.7 ± 1.6				3/50	5/50
CC1CC(C)CN(c2nccc(N3CCCC3=O)n2)C1 (stereo not shown) [Compound 344]	250 to 500	5.6 ± 1.6		10.4 ± 3.4	12.5 ± 1.3			7.5 ± 3.3				3/50	3/50
O=C1CCCN1c1ccnc(N2CCc3ccccc3C2)n1 [Compound 352]		3.4 ± 0.1		4.2 ± 0.6		5/50	3/50				> 500		
O=C1CCCN1c1ccnc(N2CCCc3ccccc32)n1 [Compound 360]			4.8 ± 1.2	6.7 ± 0.8					6/50		> 500	5/50	3/50
O=C1CCCN1c1ccnc(N2CCC(Cc3ccccc3)CC2)n1 [Compound 368]		3.4 ± 0.3				6/50	2/50	14.4 ± 1.7			> 500		
